Assay results published in US11040970B2, “VMAT2 inhibitor compounds and compositions thereof” (Neurocrine Biosciences, Inc., priority 2017, dated 2021).
pIC50, pKi: −log10 of the molar value.

Target: VMAT2 (Homo sapiens (Human), UniProt Q05940)
Sequence (Q05940 whole entry): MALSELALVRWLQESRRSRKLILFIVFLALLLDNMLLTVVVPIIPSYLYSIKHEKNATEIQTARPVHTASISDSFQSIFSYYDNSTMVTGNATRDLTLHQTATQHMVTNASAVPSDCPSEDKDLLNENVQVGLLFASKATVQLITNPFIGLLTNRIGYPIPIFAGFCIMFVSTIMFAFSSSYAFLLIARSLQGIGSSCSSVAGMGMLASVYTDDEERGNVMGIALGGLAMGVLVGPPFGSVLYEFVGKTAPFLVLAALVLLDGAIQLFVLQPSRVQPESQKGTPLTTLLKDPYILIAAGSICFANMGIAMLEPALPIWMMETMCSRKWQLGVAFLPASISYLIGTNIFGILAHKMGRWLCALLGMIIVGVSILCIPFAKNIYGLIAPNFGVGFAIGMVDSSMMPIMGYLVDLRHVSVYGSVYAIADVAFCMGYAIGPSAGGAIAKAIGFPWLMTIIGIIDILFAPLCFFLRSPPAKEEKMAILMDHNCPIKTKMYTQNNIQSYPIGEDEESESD
Experiment: VMAT2 radioligand binding assay: competition against 3H-dihydrotetrabenezine on human platelet homogenate (modified procedure)
Conditions: 10 nM 3H-dihydrotetrabenezine, 25° C., 90 minutes
Protocol: Examples of techniques for determining the capability of a compound to inhibit VMAT2 are provided below. The procedure is adapted from that described previously (see, e.g., Near, (1986), Mol. Pharmacol. 30: 252-57; Teng, et al., J. Neurochem. 71, 258-65, 1998). Homogenates from human platelets or Sprague-Dawley rat forebrain were prepared by homogenization and then washed by centrifugation as described previously (see, e.g., Hoare et al., (2003) Peptides 24:1881-97). […] Following incubation at 25° C. for two hours, bound radioligand was collected by rapid filtration onto GF/B glass fiber filters using a Unifilter-96 Harvester (PerkinElmer). Filter plates were pre-treated for 10 minutes with 0.1% polyethylenimine, and following harvesting the filter plates were washed with 800 μl VMAT2 binding buffer. Bound radioligand was quantified by scintillation counting using a Topcount NXT (PerkinElmer).
Following incubation at 25° C. for 90 minutes, bound radioligand was collected by rapid filtration onto GF/B glass fiber filters using a Unifilter-96 Harvester (PerkinElmer). Filter plates were pre-treated with 0.1% polyethylenimine and allowed to dry overnight, and following harvesting the filter plates were washed with 800 μl VMAT2 binding buffer. Bound radioligand was quantified by scintillation counting using a Topcount NXT (PerkinElmer).
For COCCOc1cc2c(cc1OC)[C@H]1CN(C)[C@H](CC(C)C)CN1CC2 [Compound 5-10, (3R,11bS)-10-methoxy-9-(2-methoxyethoxy)-2-methyl-3-(2-methylpropyl)-1H,2H,3H,4H,6H,7H,11bH-piperazino[2,1-a]isoquinoline], the pKi was 6.30 to 8.00. With COc1cc2c(cc1OCC1CC1(F)F)CCN1C[C@@H](CC(C)(C)C)N(C)C[C@H]21 (stereo partly drawn) [Compound 11-4, (3R,11bS)-9-[(2,2-difluorocyclopropyl)methoxy]-3-(2,2-dimethylpropyl)-10-methoxy-2-methyl-1H,2H,3H,4H,6H,7H,11bH-piperazino[2,1-a]isoquinoline] the pKi was > 8.00. In the case of COc1cc2c(cc1OC)[C@@H]1CN(C)[C@H](CC(C)(C)C)CN1CC2 [Compound 12-2, (3R,11bR)-3-(2,2-dimethylpropyl)-9,10-dimethoxy-2-methyl-1H,2H,3H,4H,6H,7H,11bH-piperazino[2,1-a]isoquinoline], the pKi was < 6.30. With COc1cc2c(cc1OC(C)C)CCN1C[C@@H](CC(C)C)N(C)C[C@@H]21 [Compound 6-1, (3R,11bR)-10-methoxy-2-methyl-3-(2-methylpropyl)-9-(propan-2-yloxy)-1H,2H,3H,4H,6H,7H,11bH-piperazino[2,1-a]isoquinoline] the pKi was < 6.30. Work on COc1cc2c(cc1OC)[C@H]1CN(C)[C@H](CC(C)C)CN1CC2 [Compound 2-2, (3R,11bS)-9,10-dimethoxy-2-methyl-3-(2-methylpropyl)-1H,2H,3H,4H,6H,7H,11bH-piperazino[2,1-a]isoquinoline] yielded a pKi of 6.30 to 8.00. For COc1cc2c(cc1OCCC(F)(F)F)CCN1C[C@@H](CC(C)(C)C)N(C)C[C@H]21 [Compound 11-5, (3R,11bS)-3-(2,2-dimethylpropyl)-10-methoxy-2-methyl-9-(3,3,3-trifluoropropoxy)-1H,2H,3H,4H,6H,7H,11bH-piperazino[2,1-a]isoquinoline], the pKi was > 8.00. For COc1cc2c(cc1OCC1CC1)CCN1C[C@@H](CC(C)C)N(C)C[C@H]21 [Compound 5-15, (3R,11bS)-9-(cyclopropylmethoxy)-10-methoxy-2-methyl-3-(2-methylpropyl)-1H,2H,3H,4H,6H,7H,11bH-piperazino[2,1-a]isoquinoline], the pKi was > 8.00. With COc1cc2c(cc1OCCC(F)(F)F)CCN1C[C@@H](CC(C)C)N(C)C[C@H]21 [Compound 5-19, (3R,11bS)-10-methoxy-2-methyl-3-(2-methylpropyl)-9-(3,3,3-trifluoropropoxy)-1H,2H,3H,4H,6H,7H,11bH-piperazino[2,1-a]isoquinoline] the pKi was > 8.00. COc1cc2c(cc1OCCCCF)CCN1C[C@@H](CC3CCC3)N(C)C[C@H]21 [Compound 8-8, (3R,11bS)-3-(cyclobutylmethyl)-9-(4-fluorobutoxy)-10-methoxy-2-methyl-1H,2H,3H,4H,6H,7H,11bH-piperazino[2,1-a]isoquinoline] gave a pKi of 6.30 to 8.00. In the case of COc1cc2c(cc1OCC1CC1(F)F)CCN1C[C@@H](CC3CCC3)N(C)C[C@H]21 (stereo partly drawn) [Compound 8-3, (3R,11bS)-3-(cyclobutylmethyl)-9-[(2,2-difluorocyclopropyl)methoxy]-10-methoxy-2-methyl-1H,2H,3H,4H,6H,7H,11bH-piperazino[2,1-a]isoquinoline], the pKi was 6.30 to 8.00. In the case of COc1cc2c(cc1OC)[C@@H]1CN(C)[C@H](CC(C)C)CN1CC2 [Compound 3-2, (3R,11bR)-9,10-dimethoxy-2-methyl-3-(2-methylpropyl)-1H,2H,3H,4H,6H,7H,11bH-piperazino[2,1-a]isoquinoline], the pKi was < 6.30. For CCN1C[C@@H]2c3cc(OC)c(OC)cc3CCN2C[C@H]1CC(C)C [Compound 2-1, (3R,11bS)-2-ethyl-9,10-dimethoxy-3-(2-methylpropyl)-1H,2H,3H,4H,6H,7H,11bH-piperazino[2,1-a]isoquinoline], the pKi was 6.30 to 8.00. For COc1cc2c(cc1OCCF)CCN1C[C@@H](CC(C)(C)C)N(C)C[C@H]21 [Compound 11-6, (3R,11bS)-3-(2,2-dimethylpropyl)-9-(2-fluoroethoxy)-10-methoxy-2-methyl-1H,2H,3H,4H,6H,7H,11bH-piperazino[2,1-a]isoquinoline], the pKi was > 8.00. With COc1cc2c(cc1OCCCC(F)(F)F)CCN1C[C@@H](CC3CCC3)N(C)C[C@H]21 [Compound 8-7, (3R,11bS)-3-(cyclobutylmethyl)-10-methoxy-2-methyl-9-(4,4,4-trifluorobutoxy)-1H,2H,3H,4H,6H,7H,11bH-piperazino[2,1-a]isoquinoline] the pKi was 6.30 to 8.00. Compound COc1cc2c(cc1OCCF)CCN1C[C@@H](CC(C)C)N(C)C[C@H]21 [Compound 5-4, (3R,11bS)-9-(2-fluoroethoxy)-10-methoxy-2-methyl-3-(2-methylpropyl)-1H,2H,3H,4H,6H,7H,11bH-piperazino[2,1-a]isoquinoline] has a pKi of 6.30 to 8.00. With COc1cc2c(cc1OCC1CCC1)CCN1C[C@@H](CC(C)(C)C)N(C)C[C@H]21 [Compound 11-8, (3R,11bS)-9-(cyclobutylmethoxy)-3-(2,2-dimethylpropyl)-10-methoxy-2-methyl-1H,2H,3H,4H,6H,7H,11bH-piperazino[2,1-a]isoquinoline] the pKi was > 8.00. For COc1cc2c(cc1OCC1CC1)CCN1C[C@@H](CC3CCC3)N(C)C[C@H]21 [Compound 8-5, (3R,11bS)-3-(cyclobutylmethyl)-9-(cyclopropylmethoxy)-10-methoxy-2-methyl-1H,2H,3H,4H,6H,7H,11bH-piperazino[2,1-a]isoquinoline], the pKi was 6.30 to 8.00. With C=CCOc1cc2c(cc1OC)[C@H]1CN(C)[C@H](CC(C)C)CN1CC2 [Compound 5-8, (3R,11bS)-10-methoxy-2-methyl-3-(2-methylpropyl)-9-(prop-2-en-1-yloxy)-1H,2H,3H,4H,6H,7H,11bH-piperazino[2,1-a]isoquinoline] the pKi was > 8.00. With CCN1C[C@H]2c3cc(OC)c(OC)cc3CCN2C[C@H]1CC(C)C [Compound 3-1, (3R,11bR)-2-ethyl-9,10-dimethoxy-3-(2-methylpropyl)-1H,2H,3H,4H,6H,7H,11bH-piperazino[2,1-a]isoquinoline] the pKi was < 6.30. With COc1cc2c(cc1OCCCF)CCN1C[C@@H](CC3CCC3)N(C)C[C@@H]21 [Compound 9-1, (3R,11bR)-3-(cyclobutylmethyl)-9-(3-fluoropropoxy)-10-methoxy-2-methyl-1H,2H,3H,4H,6H,7H,11bH-piperazino[2,1-a]isoquinoline] the pKi was < 6.30. COc1cc2c(cc1OC1CC1)CCN1C[C@@H](CC(C)C)N(C)C[C@H]21 [Compound 5-5, (3R,11bS)-9-cyclopropoxy-10-methoxy-2-methyl-3-(2-methylpropyl)-1H,2H,3H,4H,6H,7H,11bH-piperazino[2,1-a]isoquinoline] gave a pKi of 6.30 to 8.00. For COc1cc2c(cc1OCC(C)C)CCN1C[C@@H](CC(C)C)N(C)C[C@H]21 [Compound 5-9, (3R,11bS)-10-methoxy-2-methyl-9-(2-methylpropoxy)-3-(2-methylpropyl)-1H,2H,3H,4H,6H,7H,11bH-piperazino[2,1-a]isoquinoline], the pKi was > 8.00. In the case of CCOc1cc2c(cc1OC)[C@H]1CN(C)[C@H](CC(C)C)CN1CC2 [Compound 5-1, (3R,11bS)-9-ethoxy-10-methoxy-2-methyl-3-(2-methylpropyl)-1H,2H,3H,4H,6H,7H,11bH-piperazino[2,1-a]isoquinoline], the pKi was > 8.00.

Tested on: vesicular monoamine transporter-2 (VMAT2)
Experiment: not given
Conditions: read-out: IC50 catecholamine uptake by VMAT2; cited from earlier work
For COc1cc2c(cc1OC)C1CC(=O)C(CC(C)C)CN1CC2 (stereo not drawn) [Tetrabenazine, 3-Isobutyl-9,10-dimethoxy-1,3,4,6,7,11b-hexahydro-2H-pyrido[2,1-a]-isoquinolin-2-one], the pIC50 is listed as […].
